According to US20240019418A1, “RECEPTORS FOR CYCLIC DINUCLEOTIDES AND METHODS FOR SCREENING AGONISTS OR INHIBITORS THEREOF” (GUANGZHOU WINKEY TECHNOLOGY CO., LTD., priority 2017, published 2024):

Molecular target: T1, subtype M of human STING (Homo sapiens, UniProt Q86WV6)
T1 construct: expressed in transfected cells
Experiment: type 1 interferon promoter luciferase reporter in HEK293T cell lines stably expressing subtype M of human STING
Format: cell-based
Parameters: dose or concentration left out as unconfirmed
Conditions: c-di-AMP final concentration in complete medium, 16 hour
Procedure: After two weeks, drug resistance strains occurred.
Incubate for 20 min at room temperature. […] After 24 hours, the supernatants were removed.

T1 sequence (Q86WV6 120-379): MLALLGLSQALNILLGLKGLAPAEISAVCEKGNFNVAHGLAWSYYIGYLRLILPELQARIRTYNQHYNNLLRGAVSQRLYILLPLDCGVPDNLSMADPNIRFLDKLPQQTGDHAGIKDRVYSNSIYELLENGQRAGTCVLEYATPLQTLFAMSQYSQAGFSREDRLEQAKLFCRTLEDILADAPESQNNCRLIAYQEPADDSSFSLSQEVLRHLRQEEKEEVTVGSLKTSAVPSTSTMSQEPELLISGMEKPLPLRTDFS

luciferase activity compared with control group in which only transfection was performed: significantly increased
Compound: Nc1ncnc2c1ncn2[C@@H]1O[C@@H]2COP(=O)(O)O[C@H]3[C@@H](O)[C@H](n4cnc5c(N)ncnc54)O[C@@H]3COP(=O)(O)O[C@H]2[C@H]1O [c-di-AMP]
